Laboratory results: ChEMBL document CHEMBL1201862, “PubChem BioAssay data set” (2004)
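The compound was tested at five concentrations on cells cultured in 96-well plates, with a 48-hour exposure period. GI50: concentration for 50% inhibition of growth.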 Active and inactive are the calls of the source. Rule as the data show it: active = GI50 up to about 1.1 µM and inactive = higher. Non-standard residues stand in square brackets, D forms with d. Residues, ends and D or L forms follow the SMILES beside them. Ava = NCCCCC(=O)O; Mpa = O=C(O)CCS

Assays:
Assay in all cases: DTP human tumour cell line panel, 48 h
KM12 = tested on: KM12
MOLT-4 = tested on: MOLT-4
OVCAR-3 = tested on: OVCAR-3
K562 = tested on: K562
MDA-N = tested on: MDA-N
UO-31 = tested on: UO-31
OVCAR-8 = tested on: OVCAR-8
MDA-MB-231 = tested on: MDA-MB-231
COLO 205 = tested on: COLO 205
NCI-H226 = tested on: NCI-H226
LOX IMVI = tested on: LOX IMVI
NCI-H522 = tested on: NCI-H522
PC-3 = tested on: PC-3
SF-539 = tested on: SF-539
TK-10 = tested on: TK-10
OVCAR-4 = tested on: OVCAR-4
SW-620 = tested on: SW-620
EKVX = tested on: EKVX
HCC 2998 = tested on: HCC 2998
SK-MEL-2 = tested on: SK-MEL-2

Measured: GI50

CC1=C2C3=C(C)C(=O)C(C)(C)CC[C@@]3(C)[C@]2(C)CCC(C)(C)C1=O
inactive: KM12 > 100 µM | MOLT-4 > 100 µM | OVCAR-3 > 100 µM | K562 > 100 µM | MDA-N > 100 µM | UO-31 > 100 µM | OVCAR-8 > 100 µM | MDA-MB-231 > 100 µM | COLO 205 > 100 µM | NCI-H226 > 100 µM | LOX IMVI > 100 µM | NCI-H522 > 100 µM | PC-3 > 100 µM | SF-539 > 100 µM | TK-10 > 100 µM | OVCAR-4 > 100 µM | SW-620 > 100 µM | EKVX > 100 µM

Oc1c2c(c(O)c3ccccc13)C1(N=N2)c2ccccc2Oc2ccccc21
inactive: KM12 15.4 µM | MOLT-4 4.17 µM | OVCAR-3 3.01 µM | HCC 2998 18.7 µM | K562 9.91 µM | MDA-N 6.58 µM | UO-31 6.68 µM | OVCAR-8 3.2 µM | MDA-MB-231 13.9 µM | COLO 205 13 µM | LOX IMVI 2.38 µM | NCI-H522 1.98 µM | PC-3 12.5 µM | SF-539 5.74 µM | TK-10 6.98 µM | SK-MEL-2 12 µM | SW-620 3.64 µM | EKVX 13 µM

CC(Nc1cc(=O)n(C)c(=O)[nH]1)c1ccccc1 (configuration not stated)
inactive: KM12 > 100 µM | MOLT-4 > 100 µM | OVCAR-3 > 100 µM | HCC 2998 > 100 µM | K562 > 100 µM | MDA-N > 100 µM | UO-31 > 100 µM | OVCAR-8 > 100 µM | MDA-MB-231 > 100 µM | COLO 205 > 100 µM | LOX IMVI > 100 µM | NCI-H522 > 100 µM | PC-3 > 100 µM | SF-539 > 100 µM | TK-10 > 100 µM | SK-MEL-2 > 100 µM | OVCAR-4 > 100 µM | SW-620 > 100 µM | EKVX > 100 µM

Cc1nn(C(=O)c2ccncc2)c2c1C(c1ccccc1[N+](=O)[O-])SC(=N)N2 (configuration not stated)
inactive: KM12 > 10 µM | MOLT-4 > 10 µM | OVCAR-3 > 10 µM | HCC 2998 > 10 µM | K562 > 10 µM | MDA-N > 10 µM | OVCAR-8 > 10 µM | MDA-MB-231 > 10 µM | COLO 205 > 10 µM | NCI-H226 > 10 µM | LOX IMVI > 10 µM | PC-3 > 10 µM | SF-539 > 10 µM | TK-10 > 10 µM | SK-MEL-2 > 10 µM | OVCAR-4 > 10 µM | SW-620 > 10 µM | EKVX > 10 µM

c1ccc(-c2cs[s+]c2)cc1
inactive: KM12 > 100 µM | MOLT-4 26.5 µM | OVCAR-3 67 µM | HCC 2998 > 100 µM | K562 34.2 µM | MDA-N > 100 µM | UO-31 > 100 µM | OVCAR-8 > 100 µM | MDA-MB-231 > 100 µM | COLO 205 > 100 µM | NCI-H226 > 100 µM | LOX IMVI > 100 µM | NCI-H522 46.2 µM | PC-3 > 100 µM | TK-10 > 100 µM | OVCAR-4 > 100 µM | SW-620 49.5 µM | EKVX > 100 µM

CCCCCC/C=C\CCCCCCCCCc1cccc(OC)c1O
inactive: KM12 80 µM | MOLT-4 > 100 µM | K562 > 100 µM | MDA-N 85.9 µM | UO-31 > 100 µM | OVCAR-8 38.3 µM | MDA-MB-231 > 100 µM | COLO 205 > 100 µM | NCI-H226 > 100 µM | LOX IMVI > 100 µM | NCI-H522 47.1 µM | PC-3 63.8 µM | SF-539 > 100 µM | TK-10 > 100 µM | SK-MEL-2 > 100 µM | SW-620 > 100 µM | EKVX > 100 µM

CC(NC(=O)CCS)C(=O)NC(C)C(=O)NC(Cc1c[nH]c2ccccc12)C(=O)NC(Cc1c[nH]cn1)C(=O)NC(CO)C(=O)NC(Cc1c[nH]c2ccccc12)C(=O)NCCCCC(=O)NC(C)C(=O)NC(CCC(N)=O)C(=O)NC(CCCCN)C(=O)NC(C)C(=O)NC(CCCNC(=N)N)C(=O)NC(CCCCN)C(N)=O (configuration not stated) ([Mpa]AAWHSW[Ava]AQKARK-NH2; configuration not given here)
inactive: KM12 26.2 µM | MOLT-4 > 100 µM | OVCAR-3 > 100 µM | K562 26.9 µM | MDA-N 54.2 µM | UO-31 > 100 µM | OVCAR-8 90.2 µM | MDA-MB-231 > 100 µM | COLO 205 43.5 µM | NCI-H226 > 100 µM | LOX IMVI > 100 µM | NCI-H522 > 100 µM | PC-3 > 100 µM | SF-539 > 100 µM | TK-10 > 100 µM | SK-MEL-2 > 100 µM | OVCAR-4 > 100 µM | SW-620 94.4 µM | EKVX > 100 µM

O=C1Nc2ccccc2Cn2c1cc1oc(-c3ccccc3)cc12
inactive: KM12 95.1 µM | MOLT-4 > 100 µM | OVCAR-3 19.2 µM | HCC 2998 > 100 µM | K562 50.2 µM | MDA-N > 100 µM | OVCAR-8 31 µM | MDA-MB-231 32.5 µM | COLO 205 > 100 µM | LOX IMVI > 100 µM | NCI-H522 43.2 µM | PC-3 57.3 µM | SF-539 29.7 µM | TK-10 > 100 µM | SK-MEL-2 44.2 µM | OVCAR-4 28.8 µM | SW-620 > 100 µM | EKVX 33.7 µM

CN1C(=O)c2cccc3cc([N+](=O)[O-])cc(c23)C1=O
inactive: KM12 > 10 µM | MOLT-4 5.04 µM | OVCAR-3 > 10 µM | HCC 2998 > 10 µM | K562 > 10 µM | MDA-N > 10 µM | OVCAR-8 > 10 µM | MDA-MB-231 > 10 µM | COLO 205 > 10 µM | LOX IMVI > 10 µM | NCI-H522 5.65 µM | PC-3 > 10 µM | SF-539 > 10 µM | TK-10 > 10 µM | OVCAR-4 > 10 µM | SW-620 > 10 µM

O=C(NNC(=O)c1ccc(Cl)cc1NC(=O)C12CC3CC(CC(C3)C1)C2)c1ccc(Cl)cc1
inactive: KM12 20.3 µM | MOLT-4 30.1 µM | OVCAR-3 19.5 µM | HCC 2998 17.1 µM | K562 34.9 µM | MDA-N 22 µM | UO-31 17.1 µM | OVCAR-8 32.7 µM | MDA-MB-231 22 µM | COLO 205 14.5 µM | NCI-H226 22.7 µM | LOX IMVI 18.5 µM | NCI-H522 14.7 µM | PC-3 26.8 µM | SF-539 23.7 µM | TK-10 20.1 µM | OVCAR-4 34.8 µM | SW-620 32.1 µM | EKVX 23.2 µM

CCOC(=O)C1CCCN1C(=O)c1ccccc1Cl (configuration not stated)
inactive: KM12 > 100 µM | MOLT-4 > 100 µM | OVCAR-3 > 100 µM | HCC 2998 > 100 µM | K562 > 100 µM | MDA-N > 100 µM | UO-31 > 100 µM | OVCAR-8 > 100 µM | MDA-MB-231 > 100 µM | NCI-H226 > 100 µM | LOX IMVI > 100 µM | NCI-H522 > 100 µM | SF-539 > 100 µM | TK-10 > 100 µM | SW-620 > 100 µM | EKVX > 100 µM

O=c1[nH]c(=O)c2c([nH]1)[nH]c1ccccc12
inactive: KM12 37.8 µM | MOLT-4 > 100 µM | OVCAR-3 65.2 µM | K562 > 100 µM | MDA-N > 100 µM | UO-31 > 100 µM | OVCAR-8 > 100 µM | MDA-MB-231 > 100 µM | COLO 205 > 100 µM | NCI-H226 > 100 µM | LOX IMVI > 100 µM | NCI-H522 > 100 µM | SF-539 > 100 µM | TK-10 > 100 µM | SK-MEL-2 > 100 µM | OVCAR-4 29.3 µM | SW-620 > 100 µM | EKVX > 100 µM

O=c1[nH]c(=O)n(C2CC(O)C(CO)O2)cc1OCC1CCCCC1 (configuration not stated)
inactive: KM12 > 100 µM | MOLT-4 > 100 µM | OVCAR-3 > 100 µM | K562 > 100 µM | MDA-N > 100 µM | UO-31 > 100 µM | OVCAR-8 > 100 µM | MDA-MB-231 > 100 µM | COLO 205 > 100 µM | NCI-H226 > 100 µM | LOX IMVI > 100 µM | NCI-H522 > 100 µM | PC-3 > 100 µM | TK-10 > 100 µM | OVCAR-4 > 100 µM | EKVX > 100 µM

CCOC(=O)Cc1nc2c(N)ncnc2n1C1OC(COC(C)=O)C(OC(C)=O)C1OC(C)=O (configuration not stated)
inactive: KM12 > 100 µM | MOLT-4 > 100 µM | OVCAR-3 > 100 µM | HCC 2998 > 100 µM | K562 > 100 µM | MDA-N > 100 µM | UO-31 > 100 µM | OVCAR-8 > 100 µM | MDA-MB-231 > 100 µM | COLO 205 > 100 µM | NCI-H226 > 100 µM | LOX IMVI > 100 µM | NCI-H522 > 100 µM | PC-3 > 100 µM | SF-539 > 100 µM | TK-10 > 100 µM | SW-620 > 100 µM | EKVX > 100 µM

Oc1[nH]c(Nc2cc(Cl)cc(Cl)c2)nc2ncnc1-2
inactive: KM12 > 75 µM | MOLT-4 > 75 µM | OVCAR-3 > 75 µM | HCC 2998 > 75 µM | K562 > 75 µM | MDA-N > 75 µM | UO-31 > 75 µM | OVCAR-8 > 75 µM | MDA-MB-231 > 75 µM | COLO 205 > 75 µM | NCI-H226 > 75 µM | LOX IMVI > 75 µM | PC-3 > 75 µM | SF-539 > 75 µM | TK-10 > 75 µM | SK-MEL-2 > 75 µM | OVCAR-4 > 75 µM | SW-620 > 75 µM | EKVX > 75 µM
